Legend:
[1] = target: Serotonin (5-Hydroxytryptamine) 5-HT2B (Homo sapiens, UniProt P41595); assay: Eurofins Hit Profiling Screen; format: binding; conditions: 10 μmol/L
[2] = target: Adenosine A2A (Homo sapiens, UniProt P29274); assay: Eurofins Hit Profiling Screen; format: binding; conditions: 10 μmol/L
[3] = system: CCl4-induced liver fibrosis; assay: CCl4-induced liver fibrosis; format: in vivo, Sprague Dawley rats
Method: Pellet then underwent acid hydrolysis in 6 mol/L HCl at 100°C for 24 hours. Hydroxyproline and crosslinks were extracted from the hydrolysate using an automated solid phase extraction system (Gilson […] system). After extraction and drying, hydroxyproline and crosslinks were analysed by UHPLC-ESI-MS/MS on a Thermo Dionex UHPLC and TSQ Endura triple quad mass spectrometer. Total protein was quantified in the samples using a commercially available kit (QuickZyme Biosciences, Leiden, The Netherlands). For detailed procedures, see supporting information. The study was performed by Pharmalegacy with approval from local ethics committee. […] Animals were killed 48 hours after the last CCl4 administration. […] Alanine aminotransferase (ALT) and aspartate aminotransferase (AST) levels were assessed in the plasma. One lobe of the liver tissue was fixed in 10% formalin, stained for Sirius red and the percentage coverage area was measured. The remainder of the liver was snap frozen and used for protein, hydroxyproline and crosslink analysis.

[4] = target: Transporter, Norepinephrine (NET) (Homo sapiens, UniProt P23975); assay: Eurofins Hit Profiling Screen; format: binding; conditions: 10 μmol/L
Sequence of Transporter, Norepinephrine (NET) (P23975 whole entry): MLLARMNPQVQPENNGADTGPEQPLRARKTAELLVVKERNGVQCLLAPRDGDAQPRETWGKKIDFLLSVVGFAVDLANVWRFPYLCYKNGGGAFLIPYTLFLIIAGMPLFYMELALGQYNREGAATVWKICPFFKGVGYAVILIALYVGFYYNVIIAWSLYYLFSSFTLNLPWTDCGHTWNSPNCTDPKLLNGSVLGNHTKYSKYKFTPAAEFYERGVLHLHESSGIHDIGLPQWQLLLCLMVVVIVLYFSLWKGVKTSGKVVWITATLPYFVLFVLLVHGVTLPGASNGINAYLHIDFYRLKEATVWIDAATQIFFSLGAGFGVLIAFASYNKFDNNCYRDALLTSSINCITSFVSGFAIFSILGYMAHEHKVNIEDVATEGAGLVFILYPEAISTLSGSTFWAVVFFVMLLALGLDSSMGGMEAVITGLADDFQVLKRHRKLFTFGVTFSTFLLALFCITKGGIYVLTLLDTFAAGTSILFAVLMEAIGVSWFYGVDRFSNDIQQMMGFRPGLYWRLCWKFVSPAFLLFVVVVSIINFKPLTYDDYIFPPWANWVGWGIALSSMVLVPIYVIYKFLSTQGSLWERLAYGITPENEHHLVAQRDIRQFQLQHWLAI

[5] = system: fibrotic marker genes in the liver; assay: CCl4-induced liver fibrosis: mRNA expression of fibrotic markers in whole liver homogenates; format: in vivo, Sprague Dawley rats; conditions: PXS-5153A treatment
Method: The study was performed by Pharmalegacy with approval from local ethics committee. Sprague Dawley rats were orally administered with 0.25 μL/g Carbon tetrachloride (CCl4) in olive oil solution, starting from day 0, 3 times per week for 6 weeks. Animals were killed 48 hours after the last CCl4 administration. PXS‐5153A was given by oral gavage after 3 weeks of CCl4 administration and continued throughout the remainder of the study at 3 mg/kg (low dose) or 10 mg/kg (high dose) once a day or 10 mg/kg (high dose) three times a week. Alanine aminotransferase (ALT) and aspartate aminotransferase (AST) levels were assessed in the plasma. One lobe of the liver tissue was fixed in 10% formalin, stained for Sirius red and the percentage coverage area was measured. The remainder of the liver was snap frozen and used for protein, hydroxyproline and crosslink analysis.
Total RNA was extracted with the PureLink RNA Mini Kit according to the manufacturer's instructions (Ambion), followed by the cDNA synthesis using SuperScript VILO cDNA Synthesis Kit (Life technologies). Gene expression was measured by the 2^−ΔΔCT method using ABI7500 (Applied Biosystems) with the ABI TaqMan primer sets as specified in the supporting information.
Data was normalised to expression of the internal quantitative control (GAPDH) and expressed as the fold-change compared to the Sham treatment group.

[6] = target: T1, Native human LOXL2 (Homo sapiens, UniProt Q9Y4K0); assay: Amplex-Red fluorometric enzymatic activity assay, native human LOXL2 (IMR90 conditioned medium); format: biochemical; conditions: 30 minute pre-incubation; average of at least three experiments
T1 construct: separating LOXL2 in the portion at higher molecular weight; host or cells: IMR90 conditioned medium
T1 sequence (Q9Y4K0 26-774): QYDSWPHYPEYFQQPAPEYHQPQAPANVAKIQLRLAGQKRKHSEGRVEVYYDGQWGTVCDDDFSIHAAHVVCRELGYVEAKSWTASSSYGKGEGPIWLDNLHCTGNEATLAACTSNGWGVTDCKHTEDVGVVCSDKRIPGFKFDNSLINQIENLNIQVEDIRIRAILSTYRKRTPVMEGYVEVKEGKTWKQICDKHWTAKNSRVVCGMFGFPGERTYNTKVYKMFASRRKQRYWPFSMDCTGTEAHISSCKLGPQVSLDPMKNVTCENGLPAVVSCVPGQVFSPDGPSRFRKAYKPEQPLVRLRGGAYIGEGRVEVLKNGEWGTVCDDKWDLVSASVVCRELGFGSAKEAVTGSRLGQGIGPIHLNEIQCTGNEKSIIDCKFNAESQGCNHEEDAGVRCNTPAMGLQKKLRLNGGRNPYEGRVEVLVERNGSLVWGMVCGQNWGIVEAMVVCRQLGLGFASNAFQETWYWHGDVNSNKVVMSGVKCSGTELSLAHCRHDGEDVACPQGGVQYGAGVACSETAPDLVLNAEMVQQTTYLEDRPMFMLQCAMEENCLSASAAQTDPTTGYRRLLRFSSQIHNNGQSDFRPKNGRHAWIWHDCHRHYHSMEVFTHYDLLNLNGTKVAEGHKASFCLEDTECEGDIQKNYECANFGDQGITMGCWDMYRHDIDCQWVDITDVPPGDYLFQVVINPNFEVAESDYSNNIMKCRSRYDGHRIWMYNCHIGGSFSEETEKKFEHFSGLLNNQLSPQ
Method: (§1) The measurement of the enzymatic activity of all lysyl oxidase family members was based on the detection of hydrogen peroxide with an Amplex‐Red oxidation assay, as described in Zhou et al26 Recombinant human semicarbazide sensitive amine oxidase (SSAO/VAP1), diamine oxidase (DAO) and monoamine oxidases A and B (MAO‐A and MAO‐B) assays were performed as previously described.27 For detailed enzymatic procedures, see supporting information.
The measurement of the enzymatic activity of all lysyl oxidase family members was based on the detection of hydrogen peroxide with an Amplex-Red oxidation assay, as described in Zhou et al.[1]; miniaturised in 384 well format, with the appropriate combination of substrate and assay buffer for each individual enzyme. After a 30 minute pre-incubation of the enzyme at 37 °C with the test compound (or with different incubation times for the time-dependency assay), one volume of reaction mixture containing 120 μM Amplex Red (AR) (Life Technologies), 1.5 U/mL horseradish peroxidase (HRP) (Sigma-Aldrich) and the specific substrate was added to each sample. The relative fluorescence units (RFU) were then measured every 2.5 minutes for 30 minutes at 37°C, excitation 565 nm and emission 590, on a BMG Clariostar Microplate Reader. […]

[7] = target: MAO-A (Homo sapiens, UniProt P21397); assay: MAO-A enzymatic activity assay; format: biochemical
Sequence of MAO-A (P21397 whole entry): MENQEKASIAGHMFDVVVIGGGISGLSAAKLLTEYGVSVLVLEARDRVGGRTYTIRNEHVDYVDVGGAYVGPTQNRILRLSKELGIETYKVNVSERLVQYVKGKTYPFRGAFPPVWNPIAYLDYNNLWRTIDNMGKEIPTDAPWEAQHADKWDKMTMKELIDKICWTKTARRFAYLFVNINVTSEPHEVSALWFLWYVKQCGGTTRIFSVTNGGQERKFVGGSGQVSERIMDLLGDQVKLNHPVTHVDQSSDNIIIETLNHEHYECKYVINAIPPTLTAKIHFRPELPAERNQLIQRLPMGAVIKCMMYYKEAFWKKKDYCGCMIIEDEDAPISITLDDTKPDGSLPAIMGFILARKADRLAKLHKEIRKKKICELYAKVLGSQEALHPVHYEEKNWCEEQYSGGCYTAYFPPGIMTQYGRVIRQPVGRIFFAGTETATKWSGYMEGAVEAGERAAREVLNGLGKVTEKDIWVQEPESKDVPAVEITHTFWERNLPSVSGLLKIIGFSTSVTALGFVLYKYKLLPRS
Method: as §1
Recombinant human semicarbazide sensitive amine oxidase (SSAO/VAP1), diamine oxidase (DAO) and monoamine oxidases A and B (MAO-A and MAO-B) assays were performed as previously described.

[8] = target: Adrenergic α2A (Homo sapiens, UniProt P08913); assay: Eurofins Hit Profiling Screen; format: binding; conditions: 10 μmol/L
Sequence of Adrenergic α2A (P08913 whole entry): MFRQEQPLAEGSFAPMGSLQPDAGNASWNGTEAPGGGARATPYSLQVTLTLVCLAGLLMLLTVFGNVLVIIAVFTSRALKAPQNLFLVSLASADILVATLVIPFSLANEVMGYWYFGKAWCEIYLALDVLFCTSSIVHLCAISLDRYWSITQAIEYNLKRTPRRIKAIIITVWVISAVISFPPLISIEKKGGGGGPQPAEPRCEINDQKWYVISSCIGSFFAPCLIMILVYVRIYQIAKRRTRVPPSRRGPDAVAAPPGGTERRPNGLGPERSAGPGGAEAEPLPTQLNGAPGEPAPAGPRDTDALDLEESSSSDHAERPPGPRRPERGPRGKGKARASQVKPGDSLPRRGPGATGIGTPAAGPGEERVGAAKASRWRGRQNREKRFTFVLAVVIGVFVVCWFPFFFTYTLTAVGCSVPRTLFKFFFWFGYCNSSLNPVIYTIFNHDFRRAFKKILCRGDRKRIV

[9] = system: Rolipram; assay: Eurofins Hit Profiling Screen; format: binding; conditions: 10 μmol/L

Sequence of Adenosine A2A (P29274 whole entry): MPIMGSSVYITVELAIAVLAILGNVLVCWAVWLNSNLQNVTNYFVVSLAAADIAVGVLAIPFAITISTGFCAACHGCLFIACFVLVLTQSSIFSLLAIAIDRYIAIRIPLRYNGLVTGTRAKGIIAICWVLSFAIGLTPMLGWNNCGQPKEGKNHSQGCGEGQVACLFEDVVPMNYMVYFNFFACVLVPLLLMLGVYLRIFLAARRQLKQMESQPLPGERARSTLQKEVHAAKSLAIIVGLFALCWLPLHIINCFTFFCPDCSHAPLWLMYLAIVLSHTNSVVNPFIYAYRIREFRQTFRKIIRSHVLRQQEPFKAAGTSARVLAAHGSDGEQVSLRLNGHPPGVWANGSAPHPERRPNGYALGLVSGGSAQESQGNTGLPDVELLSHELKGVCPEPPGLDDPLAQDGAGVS
Sequence of Serotonin (5-Hydroxytryptamine) 5-HT2B (P41595 whole entry): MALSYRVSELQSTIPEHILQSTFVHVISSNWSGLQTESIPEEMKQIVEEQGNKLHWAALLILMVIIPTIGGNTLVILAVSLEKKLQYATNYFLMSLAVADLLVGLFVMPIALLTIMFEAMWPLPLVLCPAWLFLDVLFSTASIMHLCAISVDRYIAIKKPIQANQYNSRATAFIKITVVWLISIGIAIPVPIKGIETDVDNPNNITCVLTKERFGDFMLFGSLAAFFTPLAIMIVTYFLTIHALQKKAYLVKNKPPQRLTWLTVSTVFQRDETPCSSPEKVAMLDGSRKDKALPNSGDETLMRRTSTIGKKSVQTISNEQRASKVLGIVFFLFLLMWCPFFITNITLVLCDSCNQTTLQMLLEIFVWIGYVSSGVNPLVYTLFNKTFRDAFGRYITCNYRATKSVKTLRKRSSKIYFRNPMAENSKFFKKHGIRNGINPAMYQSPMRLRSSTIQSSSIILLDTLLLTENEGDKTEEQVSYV

SMILES: Cc1c(-c2cccc(S(=O)(=O)N(C)C)c2)c2ncccc2n1C/C(F)=C/CN.Cl.Cl [PXS-5153A]
- % inhibition [1]: 33%
- % inhibition [2]: 0%
- mature crosslink formation (PYD + DPD) [3]: reduced
- reduction of HYP content ([3]; all dosing regimens): > 30%
- DHLNL formation ([3]; all groups with therapeutic treatment): significant reduction
- PYD ([3]; all groups, only high dose q.d. statistically significant): different degrees of reduction
- reduction of collagen accumulation (Picrosirius red) ([3]; both of the daily dosing groups): up to 51%
- DHLNL/HYP ratio increase ([3]; crosslink normalized relative to hydroxyproline content): reversed
- DPD crosslinks ([3]; high dose q.d. treatment): significantly reduced
- liver injury, ALT and AST ([3]; high dose q.d. treatment compared with the CCl4 treated animals): significantly dampened
- immature crosslink formation (DHLNL + HLNL) ([3]; therapeutic treatment, compared with the CCl4 treated animals): substantially reduced
- % inhibition [4]: 15%
- induction of key fibrotic marker genes in the liver [5]: suppressed the induction
- IC50 [6]: 38 nM
- pIC50 ± SD [6]: 7.4 ± 0.12
- IC50 [7]: > 30000 nM
- % inhibition [8]: 97%
- % inhibition [9]: 28%
